Test results from paper PMC9518288, “The mechanism and pharmacodynamics of 2-((1H-indol-3-yl)thio/sulfinyl)-N-pheny acetamide derivative as a novel inhibitor against human respiratory syncytial virus” (Journal of Enzyme Inhibition and Medicinal Chemistry, 2022).

What was measured:
[1] = test system: wtRSV in HEp-2 cells; assay: Time-of-addition assay (RT-qPCR); assay type: cell-based, Human respiratory syncytial virus; conditions: wtRSV MOI 5, HEp-2, added at −1 to 14 h, RT-qPCR at 24 h post infection
Experimental: The time-of-addition assay was performed as follows according to our previous work and literature[25]^,[27]. HEp-2 cells were plated in 96 well plates at 1.5 × 10^4 cells per well in 100 µL culture medium and incubated for 24 h (37 °C, 5% CO2). Then, HEp-2 cells were infected with wtRSV at a multiplication of infection (MOI) of 5 for 2 h (37 °C, 5% CO2). The cells were washed with PBS and the media containing drugs and compounds of 4–49 C, 1-HB-63, RSV-604, GS-5806 and Ribavirin at 1 mM, 200 μM, 10 μM, 1 mM and 100 μM, respectively, were added at −1, 0, 2, 4, 6, 8, 10, 12 and 14 h post infection. After the treated cells were further cultured and collected at 24 h post infection, the total RNA was isolated from the HEp-2 cells using TRIzol reagent (Thermo Fisher Scientific, Waltham, MA, USA) and reverse transcribed with GoScript Reverse Transcriptase kit (Promega, Madison, WI, USA). Then, RT-qPCR was performed as described previously.
Figure 2. Investigation on the underlying mechanism 4–49 C and 1-HB-63 inhibiting wtRSV replication. (A) Time-of-addition analyses of 4-49C and 1-HB-63 replication. The HEp-2 cells were infected with wtRSV at a multiplication of infection (MOI) of 5 for 2 h (37 °C, 5% CO2). The cells were washed with PBS and the media containing drug (4-49C, 1-HB-63, RSV-604, GS-5806 and Ribavirin at 1 mM, 200 μM, 10 μM, 1 mM and 100 μM, respectively.) were added at −1, 0, 2, 4, 6, 8, 10, 12 and 14 h separately and incubated till 24 h post infection. Then, the cells were harvested and lysed for RNA extraction and RT-qPCR assay. The results were a representative of three independent experiments, and shown as means ± standard and expressed as % negative control, although in many cases the bars for the standard deviation were obscured by the symbols given the small margin of values. (B) RSV adsorption analyses. […] After 24 h, we cotransfected RSV minigenome plasmid of pBR322B-RSV-Gluc with four auxiliary plasmids into BHK/T7 cells and detected the expression of Gluc in the supernatant. […]

[2] = test system: RSV adsorption to HEp-2 cells; assay: RSV adsorption analyses (RT-qPCR); assay type: cell-based, Human respiratory syncytial virus; conditions: RSV 5 MOI, 1 h at 4 °C
Experimental: (§1) Figure 2. Investigation on the underlying mechanism 4–49 C and 1-HB-63 inhibiting wtRSV replication. (A) Time-of-addition analyses of 4-49C and 1-HB-63 replication. The HEp-2 cells were infected with wtRSV at a multiplication of infection (MOI) of 5 for 2 h (37 °C, 5% CO2). The cells were washed with PBS and the media containing drug (4-49C, 1-HB-63, RSV-604, GS-5806 and Ribavirin at 1 mM, 200 μM, 10 μM, 1 mM and 100 μM, respectively.) were added at −1, 0, 2, 4, 6, 8, 10, 12 and 14 h separately and incubated till 24 h post infection. Then, the cells were harvested and lysed for RNA extraction and RT-qPCR assay. The results were a representative of three independent experiments, and shown as means ± standard and expressed as % negative control, although in many cases the bars for the standard deviation were obscured by the symbols given the small margin of values. (B) RSV adsorption analyses. After HEp-2 cells seeded into 24 well plates for 24 h, the cold media containing RSV (5 MOI) and compounds of 4–49C, 1-HB-63 and P13 at 1 mM, 200 μM and 100 μM, respectively, was added and incubated for 1 h at 4 °C. Then, the total RNA was isolated and RT-qPCR was performed. (C) RSV minigenome assay. After 24 h, we cotransfected RSV minigenome plasmid of pBR322B-RSV-Gluc with four auxiliary plasmids into BHK/T7 cells and detected the expression of Gluc in the supernatant. […]

[3] = test system: RSV minigenome (pBR322B-RSV-Gluc) in BHK-T7 cells; assay: RSV minigenome assay (Gluc expression); assay type: cell-based, Human respiratory syncytial virus; conditions: BHK-T7, 24 h, vs DMSO
Experimental: BHK-T7 cells were seeded into 24 well plates at a density of 2 × 10^4 cells/well and incubated for 24 h. Then the RSV minigenome plasmid encoding […] (pBR322B-RSV-Gluc) was mixed with the helper plasmids (pCITE-N, pCITE-P, pCITE-L and pCITE-M2-1) in an Eppendorf tube containing 250 μL Opti-MEM. Meanwhile, the transfection reagent of Lipofectamine 2000 (Invitrogen, CA, USA) was diluted in another tube containing 250 μL Opti-MEM and incubated 5 min at room temperature. Then, the plasmids were mixed with the transfection reagent and incubated at room temperature for 30 min. After that, the BHK-T7 culture media were replaced with the DNA-lipo-optiMEM mixture and incubated for 4 ∼ 6 h (37 °C, 5% CO2). Then the DNA-lipo-optiMEM mixture was replaced with media containing the compounds (4–49 C at 1 mM and 1-HB-63 at 200 μM) and further incubated for 24 h (37 °C, 5% CO2). Finally, after the supernatant of the BHK-T7 cells was transferred into 96 well plate, the Gluc activity was determined by using LUMI star (BMG ABTECH, Ortenberg, Germany) following the manufacturer’s instructions after adding the chromogenic substrate of Gaussia Luciferase Flex Assay Kit (NEB, Ipswich, USA). The results were recorded by photography and/or evaluated with OPTIMA software (BMG LABTECH). The resultant signal strength was quantified as relative light unit (RLU).
as §1

[4] = test system: RSV-Luc; assay: In vivo mouse imaging, intraperitoneal injection; parameters: species or system BALB/c mice; conditions: i.p. 10, 30, 90 mg/kg once a day, days 1-5; except 4–49 C 10 and 90 mg/kg groups on the second day
Experimental: (§2) Female BALB/c mice of 6-8 weeks were purchased from Charles River Laboratories, Beijing, China and randomly divided into different groups with six mice in each group. All animal experiments were performed in compliance with protocols approved by the Institutional Animal Care and Use Committees of Tsinghua University (No. 17-DZJ1). The compounds (DMSO and ribavirin of 90 mg/kg was used as negative and positive control, respectively) with three different dose groups of 10, 30 and 90 mg/kg were administered to mice by intraperitoneal (i.p.) injection or oral route (anaesthesia with 2% halothane) at zero day and 1 h prior to the mice infected with 50 μL RSV-Luc (1 × 10^6 PFU), and then once a day for 5 consecutive days post RSV-Luc infection. For the in vivo mouse imaging, 50 μL PBS containing D-Luciferin Potassium Salt (75 mg/kg) was administered to BALB/c mice via nasal drip at days 1, 2, 3, 4 and 5 since RSV-Luc infection, and 5 min later, the whole-body images of BALB/c mice were acquired using an IVIS Lumina II in vivo imaging system (PE, Waltham, MA, USA). And the signal intensity was quantified as the total flux (photons/seconds) using Living Image software (PE).
Female BALB/c mice of 6–8 weeks were randomly divided into different groups with 6 mice in each group. […]

[5] = test system: RSV-Luc; assay: Determination of RSV titre from lung tissues (RT-qPCR); assay type: in vivo, BALB/c mice; conditions: i.p. 10, 30, 90 mg/kg, day 5 post-infection
Experimental: Following the experiment of the in vivo mouse imaging mentioned above, the mice were sacrificed. The lung tissues were collected, weighed, quickly frozen under liquid nitrogen and ground with a tissue homogeniser. Then the total RNA was extracted by Trizol from 100 µL homogenates. The viral RNA sample (1 µL) was mixed with the SYBR Green supermix (10 µL), plasmid pMD-18T-N (1 µL, copy number from 1 × 10^7 copies/μL to 1 × 10^5 copies/μL), the upstream and downstream primers, respectively (10 µM, 1 µL) and water (1 µL). Reactions were performed in SLAN-96P Real-Time PCR System (Shanghai Hongshi Medical Technology) as follows: 42 °C for 60 min (for reverse transcription), 95 °C for 1.5 min, 95 °C for 15 s and 60 °C for 1 min, for 40 cycles. The reaction data were analysed by determining the threshold cycle (Ct).
Female BALB/c mice of 6–8 weeks were randomly divided into different groups with 6 mice in each group. All animal experiments were performed in compliance with protocols approved by the Institutional Animal Care and Use Committees of Tsinghua University (No. 17-DZJ1). At day 0, three different doses of 4–49 C and 1-HB-63 (10 mg/kg, 30 mg/kg, 90 mg/kg) were administered to mice by intraperitoneal (i.p.) injection, respectively, with DMSO and ribavirin of 90 mg/kg separately used as negative and positive control. […]

[6] = test system: RSV-Luc; assay: In vivo mouse imaging, oral route (intragastric); parameters: species or system BALB/c mice; conditions: intragastric 30 and 90 mg/kg, gavage twice a day
Experimental: as §2, with “and then once a day for 5 consecutive days post RSV-Luc infection.” left out
In order to further make clear whether the anti-RSV activity of 4–49 C and 1-HB-63 is dependent on the administration route or not, these two compounds were given intragastrically (Figure 5(A)). […]

[7] = Pharmacokinetic study in rat; assay type: in vivo, Sprague − Dawley (SD) rats; conditions: SD rat
Experimental: Six male Sprague − Dawley (SD) rats, randomly divided into two groups of 3 each, were treated with 4–49 C predissolved in 5% DMSO, 5% Solutol and 90% Saline by intravenous injection (iv, 5 mg/kg) and in 5% DMSO and 95% (0.5%MC) by intragastric administration (ig, 10 mg/kg), respectively. Blood samples (100 μL) were collected into K2-EDTA tubes by retro‐orbital bleeding under anaesthesia using isoflurane at 0.033, 0.083, 0.25, 0.5, 1, 2, 4, 7 and 24 h after dosing. And then plasma samples were obtained by centrifuging at 5000 rpm for 10 min at 4 °C and stored at −80 °C until analysis using HPLC–MS/MS.
To investigate the pharmacokinetic parameters in vivo, 4–49 C was selected for the pharmacokinetic experiments in SD rat model. The SD rats were divided into two groups (n = 3) and treated by iv at 5 mg/kg dose and by ig at 10 mg/kg dose, respectively. Plasma samples were collected up to 24 h postdosing and the concentration of 4–49 C was measured by using HPLC-MS/MS.

[8] = male, Sprague-Dawley, iv, 5 mg/kg, plasma, n = 3, Mean ± SD
[9] = positive controls, concentration not given

O=C(C[S+]([O-])c1c[nH]c2ccccc12)Nc1ccccc1Br (stereo not shown) [1-HB-63]
time points of addition at which virus replication is inhibited ([1]; compound at 200 μM): significantly inhibited virus replication when added at the time points of −1, 0, 2 and 4 h
inhibition of RSV replication by preventing virus adsorption ([2]; 1-HB-63 at 200 μM): neither of 4-49 C and 1-HB-63 inhibited RSV replication by preventing virus adsorption
inhibition of expression of Gluc gene ([3]; 1-HB-63 at 200 μM): sharply contrast
fluorescence signals (RSV-Luc replication in lungs) compared with DMSO-treated group [4]: did not display significant differences
virus titres in lung tissues compared with DMSO [5]: no significant differences
fluorescence signals (RSV-Luc replication) compared with DMSO negative control group [6]: did not exhibit significant differences

CCOc1ccccc1NC(=O)CSc1c[nH]c2ccc(OC)cc12 [4–49 C]
time points of addition at which virus replication is inhibited ([1]; compound at 1 mM): significantly inhibited virus replication when added at the time points of −1, 0 and 2 h
inhibition of RSV replication by preventing virus adsorption ([2]; 4-49C at 1 mM): neither of 4-49 C and 1-HB-63 inhibited RSV replication by preventing virus adsorption
inhibition of expression of Gluc gene ([3]; 4–49 C at 1 mM): could not be inhibited
fluorescence signals (RSV-Luc replication in lungs) compared with DMSO-treated group [4]: did not display significant differences
virus titres in lung tissues compared with DMSO [5]: no significant differences
fluorescence signals (RSV-Luc replication) compared with DMSO negative control group [6]: did not exhibit significant differences
concentration in plasma samples after ig administration ([7]; ig, 10 mg/kg, up to 24 h, HPLC-MS/MS (data not shown)): no 4–49 C detected in plasma samples
MRTIV ([7]; iv, 5 mg/kg, plasma, n = 3, Mean ± SD): 7.86 ± 0 min
AUC(0-inf) [7, 8]: 70 ± 17 ng·h/mL
AUC(0-t) [7, 8]: 69.3 ± 17 ng·h/mL
Cmax [7, 8]: 454 ± 111 ng/mL
half-life [7, 8]: 10 ± 18 min
k el [7, 8]: 0.00119 s⁻¹

Cc1cn2nc([C@@H]3CCCCN3C(=O)c3cc(Cl)ccc3NS(C)(=O)=O)cc2nc1N1CC[C@H](N)C1 [GS-5806, reference compound]
time points of addition at which virus replication is inhibited ([1]; compound at 1 mM): inhibition activity only when added up to 0 and 2 h
inhibition of expression of Gluc gene [3, 9]: could not be inhibited

NC(=O)c1ncn([C@@H]2O[C@H](CO)[C@@H](O)[C@H]2O)n1 [ribavirin, Ribavirin, reference compound]
inhibition of expression of Gluc gene [3, 9]: sharply contrast
